Measurements reported in US20100041089A1, “IMPROVED METHOD FOR DETECTING CHEMICAL […]” (priority 2006, published 2010).

Test system: yeast genes (expressed mRNA)
Assay: DNA chip measurement of expressed mRNA of yeast genes after culture with a toxic chemical substance
Type: cell-based, Saccharomyces cerevisiae S288C
Conditions: for level of expressed mRNA in the presence of chemical substance / level in the absence of chemical substance: cultured two hours with the chemical substance; for The level of expressed mRNA in the presence of chemical substance/The level of expressed mRNA in the absence of chemical substance: cultured two hours with substance
Experimental: Yeast (Saccharomyces cerevisiae S288C (a SUC2mal mel gap2 CUP1)) were cultured at 25° C. on YPD medium (yeast extract 1%, polypeptone 2%, glucose 2%). One of toxic chemical substances was added to the cell at logarithmic growth phase, and the cell was further cultured for two hours. Cell was cultured without any chemical substance in the same condition, and was used as a control. Concentrations of the chemical substances were defined to inhibit the growth of the yeast but not lead to death.
After the completion of cultivation, the culture was centrifuged to collect the cells. To the cells, sodium acetate buffer (50 mM sodium acetate, 10 mM EDTA, 1% SDS) was added, and the mixture was shaken at 65° C. for five minutes, followed by returning to room temperature, and obtaining the supernatant, which procedure was repeated two times. To the supernatant, ½ amount of a solution of phenol/chloroform (1:1) was added, and the mixture was centrifuged to give a supernatant, an equal amount of chloroform was added, and the mixture was centrifuged to give a supernatant. To the supernatant, an equal amount of isopropanol containing 0.3 M sodium acetate was added, and the mixture was allowed to stand at room temperature for 30 minutes, after which the mixture was centrifuged to give sediment of the whole RNAs. Seventy % ethanol was added to the sediment, and the mixture was again centrifuged to give sediment, which was then dried and dissolved in water. mRNA was isolated from the whole RNAs as followings. In view of the fact that a poly A chain is attached to the 3′ terminus of mRNA, a polynucleotide having a poly T structure which was immobilized on the surface of latex beads was used to trap the mRNA, and then the mRNA was washed and eluted with spine column (Oligotex-dT30<Super>mRNA Purification Kit, Takara). Reverse transcription of the mRNA was conducted with a reverse transcriptase (Super Script II Reverse Transcriptase; catalogue No. 18064-014, GibcoBRL) using fluorescence-labeled nucleotides to give cDNAs that were introduced with Cy3-dUTP or Cy5-dUTP during the reverse transcription.
The labeled cDNAs were dissolved in TE buffer (10 mM Tris-HCl/1 mM EDTA, pH 8.0), and the solution was dropped on the DNA chip containing the whole genes of yeast (DNA Chip Research Inc. Japan) so that the cDNAs were hybridized on the DNA chip at 65° C. for over 12 hours. The fluoresces intensity of the DNA chip was read with a scanner, and the ratio relative to the fluorescence intensity resulting from the absence of chemical substance was estimated as the following, which is shown in Tables 1 to 9.
In the Tables, “Intensity” indicated in the rightmost column is a value of the level of expressed mRNA of each gene in control cells as divided by the average level of the expressions of the whole genes. A gene of which mRNA level is lower in control, and is higher in cases of addition of chemical substance, is especially useful in the detection of toxic substances.
Here, when a ratio of an amount of mRNA expressed in the presence of the chemical substance to an amount of mRNA expressed in the absence of the chemical substance is two or more, then it is considered significant.

## [Cl][Hg][Cl] [(3), HgCl2]
Gene YBR036C, Metabolism protein genes, DNA chip fluorescence ratio
  The level of expressed mRNA in the presence of chemical substance/The level of expressed mRNA in the absence of chemical substance, yeast gene YBR036C: 1.8
Gene YBR298C, Metabolism protein genes, DNA chip fluorescence ratio
  The level of expressed mRNA in the presence of chemical substance/The level of expressed mRNA in the absence of chemical substance, yeast gene YBR298C: 1.6
Gene YDL067C (mitochondria-located protein gene), yeast cultured two hours with chemical substance, DNA chip fluorescence ratio to control
  The level of expressed mRNA in the presence of chemical substance/The level of expressed mRNA in the absence of chemical substance, yeast gene YDL067C: 1.6
Gene YDL078C, Metabolism protein genes, DNA chip fluorescence ratio
  The level of expressed mRNA in the presence of chemical substance/The level of expressed mRNA in the absence of chemical substance, yeast gene YDL078C: 1.2
Gene YDL215C, Metabolism protein genes, DNA chip fluorescence ratio
  The level of expressed mRNA in the presence of chemical substance/The level of expressed mRNA in the absence of chemical substance, yeast gene YDL215C: 1.0
Gene YDR079W (mitochondria-located protein gene), yeast cultured two hours with chemical substance, DNA chip fluorescence ratio to control
  The level of expressed mRNA in the presence of chemical substance/The level of expressed mRNA in the absence of chemical substance, yeast gene YDR079W: 0.8
Gene YDR297W, Metabolism protein genes, DNA chip fluorescence ratio
  The level of expressed mRNA in the presence of chemical substance/The level of expressed mRNA in the absence of chemical substance, yeast gene YDR297W: 0.8
Gene YDR387C, Metabolism protein genes, DNA chip fluorescence ratio
  The level of expressed mRNA in the presence of chemical substance/The level of expressed mRNA in the absence of chemical substance, yeast gene YDR387C: 1.2
Gene YGL035C, Metabolism protein genes, DNA chip fluorescence ratio
  The level of expressed mRNA in the presence of chemical substance/The level of expressed mRNA in the absence of chemical substance, yeast gene YGL035C: 4.3
Gene YGR062C (mitochondria-located protein gene), yeast cultured two hours with chemical substance, DNA chip fluorescence ratio to control
  The level of expressed mRNA in the presence of chemical substance/The level of expressed mRNA in the absence of chemical substance, yeast gene YGR062C: 0.7
Gene YGR287C, Metabolism protein genes, DNA chip fluorescence ratio
  The level of expressed mRNA in the presence of chemical substance/The level of expressed mRNA in the absence of chemical substance, yeast gene YGR287C: 1.3
Gene YJL070C, Metabolism protein genes, DNA chip fluorescence ratio
  The level of expressed mRNA in the presence of chemical substance/The level of expressed mRNA in the absence of chemical substance, yeast gene YJL070C: 1.1
Gene YJL096W (mitochondria-located protein gene), yeast cultured two hours with chemical substance, DNA chip fluorescence ratio to control
  The level of expressed mRNA in the presence of chemical substance/The level of expressed mRNA in the absence of chemical substance, yeast gene YJL096W: 0.8
Gene YJL180C (mitochondria-located protein gene), yeast cultured two hours with chemical substance, DNA chip fluorescence ratio to control
  The level of expressed mRNA in the presence of chemical substance/The level of expressed mRNA in the absence of chemical substance, yeast gene YJL180C: 1.1
Gene YKR009C, Metabolism protein genes, DNA chip fluorescence ratio
  The level of expressed mRNA in the presence of chemical substance/The level of expressed mRNA in the absence of chemical substance, yeast gene YKR009C: 1.5
Gene YLR295C (mitochondria-located protein gene), yeast cultured two hours with chemical substance, DNA chip fluorescence ratio to control
  The level of expressed mRNA in the presence of chemical substance/The level of expressed mRNA in the absence of chemical substance, yeast gene YLR295C: 1.1
Gene YLR351C, Metabolism protein genes, DNA chip fluorescence ratio
  The level of expressed mRNA in the presence of chemical substance/The level of expressed mRNA in the absence of chemical substance, yeast gene YLR351C: 1.3
Gene YLR375W, Metabolism protein genes, DNA chip fluorescence ratio
  The level of expressed mRNA in the presence of chemical substance/The level of expressed mRNA in the absence of chemical substance, yeast gene YLR375W: 0.9
Gene YMR023C (mitochondria-located protein gene), yeast cultured two hours with chemical substance, DNA chip fluorescence ratio to control
  The level of expressed mRNA in the presence of chemical substance/The level of expressed mRNA in the absence of chemical substance, yeast gene YMR023C: 0.5
Gene YMR267W (mitochondria-located protein gene), yeast cultured two hours with chemical substance, DNA chip fluorescence ratio to control
  The level of expressed mRNA in the presence of chemical substance/The level of expressed mRNA in the absence of chemical substance, yeast gene YMR267W: 0.7
Gene YMR267W, Metabolism protein genes, DNA chip fluorescence ratio
  The level of expressed mRNA in the presence of chemical substance/The level of expressed mRNA in the absence of chemical substance, yeast gene YMR267W: 0.7
Gene YMR278W, Metabolism protein genes, DNA chip fluorescence ratio
  The level of expressed mRNA in the presence of chemical substance/The level of expressed mRNA in the absence of chemical substance, yeast gene YMR278W: 1.4
Gene YMR293C, Metabolism protein genes, DNA chip fluorescence ratio
  The level of expressed mRNA in the presence of chemical substance/The level of expressed mRNA in the absence of chemical substance, yeast gene YMR293C: 1.6
Gene YNL073W (mitochondria-located protein gene), yeast cultured two hours with chemical substance, DNA chip fluorescence ratio to control
  The level of expressed mRNA in the presence of chemical substance/The level of expressed mRNA in the absence of chemical substance, yeast gene YNL073W: 0.9
Gene YNR072W, Metabolism protein genes, DNA chip fluorescence ratio
  The level of expressed mRNA in the presence of chemical substance/The level of expressed mRNA in the absence of chemical substance, yeast gene YNR072W: 0.5
Gene YOL096C, Metabolism protein genes, DNA chip fluorescence ratio
  The level of expressed mRNA in the presence of chemical substance/The level of expressed mRNA in the absence of chemical substance, yeast gene YOL096C: 1.2
Gene YOR180C, Metabolism protein genes, DNA chip fluorescence ratio
  The level of expressed mRNA in the presence of chemical substance/The level of expressed mRNA in the absence of chemical substance, yeast gene YOR180C: 1.0
Gene YOR316C (mitochondria-located protein gene), yeast cultured two hours with chemical substance, DNA chip fluorescence ratio to control
  The level of expressed mRNA in the presence of chemical substance/The level of expressed mRNA in the absence of chemical substance, yeast gene YOR316C: 1.5
Gene YOR363C, Metabolism protein genes, DNA chip fluorescence ratio
  The level of expressed mRNA in the presence of chemical substance/The level of expressed mRNA in the absence of chemical substance, yeast gene YOR363C: 0.9
Gene YPL040C (mitochondria-located protein gene), yeast cultured two hours with chemical substance, DNA chip fluorescence ratio to control
  The level of expressed mRNA in the presence of chemical substance/The level of expressed mRNA in the absence of chemical substance, yeast gene YPL040C: 0.8
Gene YPL134C (mitochondria-located protein gene), yeast cultured two hours with chemical substance, DNA chip fluorescence ratio to control
  The level of expressed mRNA in the presence of chemical substance/The level of expressed mRNA in the absence of chemical substance, yeast gene YPL134C: 1.6
Gene YPR184W, Metabolism protein genes, DNA chip fluorescence ratio
  The level of expressed mRNA in the presence of chemical substance/The level of expressed mRNA in the absence of chemical substance, yeast gene YPR184W: 5.7
Yeast gene YAL018C
  level of expressed mRNA in the presence of chemical substance / level in the absence of chemical substance: 1.1
Yeast gene YAL053W
  The level of expressed mRNA in the presence of chemical substance/The level of expressed mRNA in the absence of chemical substance: 1.3
Yeast gene YAR047C
  level of expressed mRNA in the presence of chemical substance / level in the absence of chemical substance: 1.5
Yeast gene YAR064W
  level of expressed mRNA in the presence of chemical substance / level in the absence of chemical substance: 0.9
Yeast gene YBL044W
  level of expressed mRNA in the presence of chemical substance / level in the absence of chemical substance: 2.1
Yeast gene YBL048W
  The level of expressed mRNA in the presence of chemical substance/The level of expressed mRNA in the absence of chemical substance: 2.3
Yeast gene YBL107C
  The level of expressed mRNA in the presence of chemical substance/The level of expressed mRNA in the absence of chemical substance: 0.4
Yeast gene YBR012C
  level of expressed mRNA in the presence of chemical substance / level in the absence of chemical substance: 1.3
Yeast gene YBR066C
  level of expressed mRNA in the presence of chemical substance / level in the absence of chemical substance: 1.6
Yeast gene YBR124W
  level of expressed mRNA in the presence of chemical substance / level in the absence of chemical substance: 1.5
Yeast gene YBR162C
  level of expressed mRNA in the presence of chemical substance / level in the absence of chemical substance: 3.1
Yeast gene YBR287W
  level of expressed mRNA in the presence of chemical substance / level in the absence of chemical substance: 3.1
Yeast gene YCL042W
  level of expressed mRNA in the presence of chemical substance / level in the absence of chemical substance: 7.2
Yeast gene YCL056C
  level of expressed mRNA in the presence of chemical substance / level in the absence of chemical substance: 0.7
Yeast gene YCR007C
  level of expressed mRNA in the presence of chemical substance / level in the absence of chemical substance: 0.9
Yeast gene YDL046W
  level of expressed mRNA in the presence of chemical substance / level in the absence of chemical substance: 5.1
Yeast gene YDL072C
  The level of expressed mRNA in the presence of chemical substance/The level of expressed mRNA in the absence of chemical substance: 3.5
Yeast gene YDL204W
  The level of expressed mRNA in the presence of chemical substance/The level of expressed mRNA in the absence of chemical substance: 4.8
Yeast gene YDL222C
  The level of expressed mRNA in the presence of chemical substance/The level of expressed mRNA in the absence of chemical substance: 1.5
Yeast gene YDR090C
  level of expressed mRNA in the presence of chemical substance / level in the absence of chemical substance: 0.8
